How the values were obtained:
[1] = target: T1, SMARCA4 (Homo sapiens, UniProt P51532); assay: Cellular degradation assay, SMARCA4 (Table 1); format: cell-based
T1 construct: endogenous in cells

[2] = target: T2, SMARCA2 (Homo sapiens, UniProt P51531); assay: SMARCA2 Cellular Degradation Assay (Western blot analysis on Jess platform); format: cell-based; details: for DC50 / Dmax: cellular degradation; for Fold Selectivity SMARCA4/2: ratio DC50 SMARCA4 / DC50 SMARCA2
T2 construct: endogenous in cells
Method in brief: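 Tumor-derived cell pellets (5×10E5-1×10E6 live cells) lysed in RIPA + 0.2% SDS, phosphatase/protease inhibitors, benzonase; 5 μg protein/capillary on Jess; chemiluminescence/fluorescence immunoassay; SMARCA2/actin peak area, % of vehicle.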

T1 sequence (P51532 whole entry, species assumed): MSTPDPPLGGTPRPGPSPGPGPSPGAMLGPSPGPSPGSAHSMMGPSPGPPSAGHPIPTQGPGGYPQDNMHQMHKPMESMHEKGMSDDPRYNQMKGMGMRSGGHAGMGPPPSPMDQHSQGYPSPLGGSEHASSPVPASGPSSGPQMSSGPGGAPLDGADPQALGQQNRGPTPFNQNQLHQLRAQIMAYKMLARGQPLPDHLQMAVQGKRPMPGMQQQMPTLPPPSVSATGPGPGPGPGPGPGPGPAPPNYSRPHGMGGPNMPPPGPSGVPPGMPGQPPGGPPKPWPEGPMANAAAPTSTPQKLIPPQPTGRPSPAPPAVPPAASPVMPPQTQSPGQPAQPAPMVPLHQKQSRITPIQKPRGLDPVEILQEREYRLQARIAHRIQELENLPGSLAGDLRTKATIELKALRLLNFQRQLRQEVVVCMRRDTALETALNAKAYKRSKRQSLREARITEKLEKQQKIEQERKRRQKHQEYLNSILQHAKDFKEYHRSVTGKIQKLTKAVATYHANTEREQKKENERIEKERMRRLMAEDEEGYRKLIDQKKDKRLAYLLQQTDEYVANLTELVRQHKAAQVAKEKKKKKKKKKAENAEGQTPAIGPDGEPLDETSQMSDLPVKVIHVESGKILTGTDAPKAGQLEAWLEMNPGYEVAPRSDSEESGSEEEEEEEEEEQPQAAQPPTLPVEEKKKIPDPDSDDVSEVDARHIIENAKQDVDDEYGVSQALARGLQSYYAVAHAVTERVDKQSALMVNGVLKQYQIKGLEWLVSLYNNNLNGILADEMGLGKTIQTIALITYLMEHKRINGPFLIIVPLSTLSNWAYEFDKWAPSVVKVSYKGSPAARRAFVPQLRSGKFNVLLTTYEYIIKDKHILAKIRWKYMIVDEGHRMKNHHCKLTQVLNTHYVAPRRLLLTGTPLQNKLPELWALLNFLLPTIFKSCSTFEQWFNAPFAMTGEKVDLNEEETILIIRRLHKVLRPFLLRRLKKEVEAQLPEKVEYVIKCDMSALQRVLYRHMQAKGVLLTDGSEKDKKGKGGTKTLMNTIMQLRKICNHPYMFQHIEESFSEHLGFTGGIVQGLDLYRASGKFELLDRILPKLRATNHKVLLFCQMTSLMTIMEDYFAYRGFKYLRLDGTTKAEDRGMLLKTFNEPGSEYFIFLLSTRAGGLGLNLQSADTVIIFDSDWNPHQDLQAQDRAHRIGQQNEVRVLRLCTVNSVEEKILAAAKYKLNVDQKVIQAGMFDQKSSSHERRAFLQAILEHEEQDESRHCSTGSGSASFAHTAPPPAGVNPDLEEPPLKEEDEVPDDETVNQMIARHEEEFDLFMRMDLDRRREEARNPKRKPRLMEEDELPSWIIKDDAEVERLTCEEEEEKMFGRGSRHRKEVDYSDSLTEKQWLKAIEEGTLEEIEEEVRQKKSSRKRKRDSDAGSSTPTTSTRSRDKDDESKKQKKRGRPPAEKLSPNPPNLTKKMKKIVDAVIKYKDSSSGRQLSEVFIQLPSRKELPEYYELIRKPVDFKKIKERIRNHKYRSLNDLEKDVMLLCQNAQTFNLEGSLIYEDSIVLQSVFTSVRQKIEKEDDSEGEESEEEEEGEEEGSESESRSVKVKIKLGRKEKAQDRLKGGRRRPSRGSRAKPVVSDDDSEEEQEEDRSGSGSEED
T2 sequence (P51531 whole entry, species assumed): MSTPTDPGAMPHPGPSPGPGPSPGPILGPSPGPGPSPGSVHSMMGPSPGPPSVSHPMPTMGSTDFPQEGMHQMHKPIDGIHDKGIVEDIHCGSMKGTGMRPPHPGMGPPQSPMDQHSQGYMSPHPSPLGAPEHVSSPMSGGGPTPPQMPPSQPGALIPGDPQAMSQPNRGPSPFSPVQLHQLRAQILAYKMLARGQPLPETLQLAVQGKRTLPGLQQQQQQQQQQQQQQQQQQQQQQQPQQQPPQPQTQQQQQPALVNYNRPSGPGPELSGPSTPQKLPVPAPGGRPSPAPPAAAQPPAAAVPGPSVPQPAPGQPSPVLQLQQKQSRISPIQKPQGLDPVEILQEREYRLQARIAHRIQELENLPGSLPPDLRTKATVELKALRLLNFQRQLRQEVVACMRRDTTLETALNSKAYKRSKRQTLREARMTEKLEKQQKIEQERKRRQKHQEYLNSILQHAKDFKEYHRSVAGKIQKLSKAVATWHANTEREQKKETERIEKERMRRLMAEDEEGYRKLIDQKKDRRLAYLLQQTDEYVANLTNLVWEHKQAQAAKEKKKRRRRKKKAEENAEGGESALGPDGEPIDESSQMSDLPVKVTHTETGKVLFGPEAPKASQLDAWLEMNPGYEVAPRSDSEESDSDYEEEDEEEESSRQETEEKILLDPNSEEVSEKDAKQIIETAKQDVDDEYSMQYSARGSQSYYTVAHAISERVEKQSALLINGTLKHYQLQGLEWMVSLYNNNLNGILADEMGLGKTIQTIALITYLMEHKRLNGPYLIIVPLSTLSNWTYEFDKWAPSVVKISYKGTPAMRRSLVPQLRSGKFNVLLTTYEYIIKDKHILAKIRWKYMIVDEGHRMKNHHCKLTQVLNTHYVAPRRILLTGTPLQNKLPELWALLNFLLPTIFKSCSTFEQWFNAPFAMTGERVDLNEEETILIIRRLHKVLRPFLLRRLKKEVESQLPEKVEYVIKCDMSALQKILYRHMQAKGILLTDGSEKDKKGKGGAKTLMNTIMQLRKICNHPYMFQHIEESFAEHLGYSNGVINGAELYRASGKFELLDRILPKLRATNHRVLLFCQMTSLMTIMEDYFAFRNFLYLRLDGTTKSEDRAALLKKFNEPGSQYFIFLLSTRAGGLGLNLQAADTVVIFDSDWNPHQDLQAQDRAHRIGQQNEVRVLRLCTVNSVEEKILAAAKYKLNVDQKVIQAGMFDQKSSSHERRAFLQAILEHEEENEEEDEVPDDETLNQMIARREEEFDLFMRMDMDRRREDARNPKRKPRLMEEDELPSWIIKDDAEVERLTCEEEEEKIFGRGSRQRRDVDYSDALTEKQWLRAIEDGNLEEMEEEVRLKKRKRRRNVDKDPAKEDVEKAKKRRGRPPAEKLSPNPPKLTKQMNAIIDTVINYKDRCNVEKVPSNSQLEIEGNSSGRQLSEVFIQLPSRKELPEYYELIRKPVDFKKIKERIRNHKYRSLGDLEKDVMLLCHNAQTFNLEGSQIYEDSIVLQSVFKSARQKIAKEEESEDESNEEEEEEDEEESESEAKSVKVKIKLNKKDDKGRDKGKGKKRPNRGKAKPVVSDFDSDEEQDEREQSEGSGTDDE

DC50 [1]	Dmax [1]	DC50 [2]	Dmax [2]	Fold Selectivity SMARCA4/2 [2]	SMILES
157 nM	59.6%	3.57 nM	92.3%	44	CN(C(=O)C1(c2ccccc2)CCN(c2cnnc(-c3ccccc3O)c2)CC1)C1CCN(CCC2CCN(c3ccc(C4CCC(=O)NC4=O)c(F)c3)CC2)CC1 (racemic) [Example 151, rac-N-{1-[2-(1-{4-[(3R)-2,6-dioxopiperidin-3-yl]-3-fluorophenyl}piperidin-4-yl)ethyl]piperidin-4-yl}-1-[6-(2-hydroxyphenyl)pyridazin-4-yl]-N-methyl-4-phenylpiperidine-4-carboxamide]
273 nM	56.9%	16.7 nM	80.8%	16	CN(C(=O)C1(Oc2ccn(C)n2)CCN(c2cnnc(-c3ccccc3O)c2)CC1)C1CCN(C(=O)CN2CCC(c3ccc([C@@H]4CCC(=O)NC4=O)cc3)CC2)CC1 (racemic) [Example 110, rac-n-(1-(2-(4-(4-(2,6-dioxopiperidin-3-yl)phenyl)piperidin-1-yl)acetyl)piperidin-4-yl)-1-(6-(2-hydroxyphenyl)pyridazin-4-yl)-n-methyl-4-((1-methyl-1h-pyrazol-3-yl)oxy)piperidine-4-carboxamide]
1.36 nM	88.5%	0.44 nM	92%	3	Cn1c(=O)n(C2CCC(=O)NC2=O)c2ccc(N3CCC(CN4CCC(NC(=O)C5(c6ccccc6)CCN(c6cnnc(-c7ccccc7O)c6)CC5)CC4)CC3)cc21 (racemic) [Example 158, rac-N-{1-[(1-{1-[(3R)-2,6-dioxopiperidin-3-yl]-3-methyl-2-oxo-2,3-dihydro-1H-1,3-benzodiazol-5-yl}piperidin-4-yl)methyl]piperidin-4-yl}-1-[6-(2-hydroxyphenyl)pyridazin-4-yl]-4-phenylpiperidine-4-carboxamide]
57.4 nM	75.8%	7.97 nM	88.6%	7	Cc1ccccc1OC1(C(=O)N(C)C2CCN(C(=O)CN3CCC(c4ccc([C@@H]5CCC(=O)NC5=O)cc4)CC3)CC2)CCN(c2cnnc(-c3ccccc3O)c2)CC1 (racemic) [Example 116, rac-n-(1-(2-(4-(4-(2,6-dioxopiperidin-3-yl)phenyl)piperidin-1-yl)acetyl)piperidin-4-yl)-1-(6-(2-hydroxyphenyl)pyridazin-4-yl)-n-methyl-4-(o-tolyloxy)piperidine-4-carboxamide]
20.3 nM	79.4%	3.52 nM	89.2%	6	O=C1CC[C@H](c2ccc(N3CCC(CN4CC5(C4)CN(C(=O)C4(Oc6ccccc6Cl)CCN(c6cnnc(-c7ccccc7O)c6)CC4)C5)CC3)cc2)C(=O)N1 [Example 119, (r)-3-(4-(4-((6-(4-(2-chlorophenoxy)-1-(6-(2-hydroxyphenyl)pyridazin-4-yl)piperidine-4-carbonyl)-2,6-diazaspiro[3.3]heptan-2-yl)methyl)piperidin-1-yl)phenyl)piperidine-2,6-dione]
	9.32%		28.7%	1	O=C1CC[C@H](c2ccc(N3CCC(CN4CCCC4C4CCCCN4C(=O)C4(c5ccccc5)CCN(c5cnnc(-c6ccccc6O)c5)CC4)CC3)cc2)C(=O)N1 (stereo partly drawn) [Example 42, (3R)-3-[4-(4-{[2-(1-{1-[6-(2-hydroxyphenyl)pyridazin-4-yl]-4-phenylpiperidine-4-carbonyl}piperidin-2-yl)pyrrolidin-1-yl]methyl}piperidin-1-yl)phenyl]piperidine-2,6-dione]
	16.3%		35.6%	1	O=C1CC[C@H](c2ccc(N3CCC(CN4CCC(C5CCN(C(=O)C6(c7ccccc7)CCN(c7cnnc(-c8ccccc8O)c7)CC6)CC5)C4)CC3)cc2)C(=O)N1 (stereo partly drawn) [Example 48, (3R)-3-[4-(4-{[3-(1-{1-[6-(2-hydroxyphenyl)pyridazin-4-yl]-4-phenylpiperidine-4-carbonyl}piperidin-4-yl)pyrrolidin-1-yl]methyl}piperidin-1-yl)phenyl]piperidine-2,6-dione]
5030 nM	49.3%	14.8 nM	79.9%	340.31	O=C1CC[C@H](c2ccc(N3CCC(CN4CC5(C4)CN(C(=O)C4(c6ccccc6)CCN(c6cnnc(-c7ccccc7O)c6)CC4)C5)CC3)cc2)C(=O)N1 [Example 15, (3R)-3-(4-{4-[(6-{1-[6-(2-hydroxyphenyl)pyridazin-4-yl]-4-phenylpiperidine-4-carbonyl}-2,6-diazaspiro[3.3]heptan-2-yl)methyl]piperidin-1-yl}phenyl)piperidine-2,6-dione]
249 nM	56.2%	6.43 nM	80.7%	39	CC1(C)CC(NC(=O)C2(c3ccccc3)CCN(c3cnnc(-c4ccccc4O)c3)CC2)CCN1CC1CCN(c2ccc([C@H]3CCC(=O)NC3=O)cc2)CC1 (stereo partly drawn) [Example 183, N-{1-[(1-{4-[(3R)-2,6-dioxopiperidin-3-yl]phenyl}piperidin-4-yl)methyl]-2,2-dimethylpiperidin-4-yl}-1-[6-(2-hydroxyphenyl)pyridazin-4-yl]-4-phenylpiperidine-4-carboxamide]
317 nM	35.2%	24.2 nM	65.8%	13	O=C1CC[C@@H](c2ccc(O[C@H]3CC[C@H](CN4CC5(C4)CN(C(=O)C4(c6ccccc6)CCN(c6cnnc(-c7ccccc7O)c6)CC4)C5)CC3)cc2)C(=O)N1 (racemic) [Example 166, (3RS)-3-(4-{[(1r,4r)-4-[(6-{1-[6-(2-hydroxyphenyl)pyridazin-4-yl]-4-phenylpiperidine-4-carbonyl}-2,6-diazaspiro[3.3]heptan-2-yl)methyl]cyclohexyl]oxy}phenyl)piperidine-2,6-dione]
46.5 nM	61.9%	4.23 nM	89.5%	11	O=C1CC[C@H](c2ccc(N3CCC(CCN4CCC(C(=O)NCC5(c6ccccc6)CCN(c6cnnc(-c7ccccc7O)c6)CC5)C5CC54)CC3)cc2)C(=O)N1 (mixture of isomers) [Example 84, rac-2-(2-(1-(4-((r)-2,6-dioxopiperidin-3-yl)phenyl)piperidin-4-yl)ethyl)-n-((1-(6-(2-hydroxyphenyl)pyridazin-4-yl)-4-phenylpiperidin-4-yl)methyl)-2-azabicyclo[4.1.0]heptane-5-carboxamide]
	31.1%	8.79 nM	87.1%	1138	CN(C(=O)C1(c2ccc(F)cc2)CCN(c2cnnc(-c3ccccc3O)c2)CC1)C1CCN(CCC2CCN(c3ccc(C4CCC(=O)NC4=O)cc3)CC2)CC1 (racemic) [Example 134, rac-N-{1-[2-(1-{4-[(3R)-2,6-dioxopiperidin-3-yl]phenyl}piperidin-4-yl)ethyl]piperidin-4-yl}-4-(4-fluorophenyl)-1-[6-(2-hydroxyphenyl)pyridazin-4-yl]-n-methylpiperidine-4-carboxamide]
	35.6%	29.8 nM	60.2%	335	O=C1CC[C@H](c2ccc(N3CCC(CN[C@H]4CC[C@H](NC(=O)C5(c6ccccc6)CCN(c6cnnc(-c7ccccc7O)c6)CC5)CC4)CC3)cc2)C(=O)N1 (racemic) [Example 175, 1-[6-(2-hydroxyphenyl)pyridazin-4-yl]-4-phenyl-N-[(1r,4r)-4-{[(1-{4-[(3RS)-2,6-dioxopiperidin-3-yl]phenyl}piperidin-4-yl)methyl]amino}cyclohexyl]piperidine-4-carboxamide]
34.9 nM	71.5%	6.59 nM	87%	5	C[C@@H](C1CCN(c2ccc([C@H]3CCC(=O)NC3=O)cn2)CC1)N1CC2(CN(C(=O)C3(c4ccccc4)CCN(c4cnnc(-c5ccccc5O)c4)CC3)C2)C1 (racemic) [Example 141, (3RS&)-3-(6-{4-[(1RS)-1-(6-{1-[6-(2-hydroxyphenyl)pyridazin-4-yl]-4-phenylpiperidine-4-carbonyl}-2,6-diazaspiro[3.3]heptan-2-yl)ethyl]piperidin-1-yl}pyridin-3-yl)piperidine-2,6-dione]
	39.8%	44.9 nM	62%	223	CN(C(=O)CN1CCN(c2ccc([C@H]3CCC(=O)NC3=O)cc2)CC1)[C@H]1CC[C@H](NC(=O)C2(Oc3ccccc3)CCN(c3cnnc(-c4ccccc4O)c3)CC2)CC1 (racemic) [Example 173, 1-[6-(2-hydroxyphenyl)pyridazin-4-yl]-4-phenoxy-N-[(1r,4r)-4-[2-(4-{4-[(3R)-2,6-dioxopiperidin-3-yl]phenyl}piperazin-1-yl)-N-methylacetamido]cyclohexyl]piperidine-4-carboxamide]
47.3 nM	64.5%	13.7 nM	76.8%	3	CC(N[C@H]1CC[C@@H](NC(=O)C2(c3ccccc3)CCN(c3cnnc(-c4ccccc4O)c3)CC2)CC1)C1CCN(c2ccc([C@H]3CCC(=O)NC3=O)cn2)CC1 (mixture of isomers) [Example 147, 1-[6-(2-hydroxyphenyl)pyridazin-4-yl]-4-phenyl-N-[(1,4s)-4-{[1-(1-{5-[(3rs)-2,6-dioxopiperidin-3-yl]pyridin-2-yl}piperidin-4-yl)ethyl]amino}cyclohexyl]piperidine-4-carboxamide]
	50%	7.6 nM	78.4%	1316	COC1(C(=O)N2CCC3(CC2)CN(CC2CCN(c4ccc([C@H]5CCC(=O)NC5=O)cc4)CC2)C3)CCN(c2cnnc(-c3ccccc3O)c2)CC1 [Example 120, (r)-3-(4-(4-((7-(1-(6-(2-hydroxyphenyl)pyridazin-4-yl)-4-methoxypiperidine-4-carbonyl)-2,7-diazaspiro[3.5]nonan-2-yl)methyl)piperidin-1-yl)phenyl)piperidine-2,6-dione]

From US20250051344A1, “BIFUNCTIONAL SELECTIVE DEGRADERS OF SMARCA2 AND THERAPEUTIC USES THEREOF” (Nurix Therapeutics, Inc., priority 2023, published 2025)
